# pIC50: −log10 of the molar value.
# Legend:
# [1] = system: IFNγ-induced NO production in RAW264.7 mouse macrophages; experiment: Suppression of IFNγ-induced NO production in RAW264.7 (Griess, normalized to WST-1 viability); type: cell-based; settings: RAW264.7, 2 h pre-treatment (0-200 nM dose range), IFNγ 24 h, normalized to cell viability
# Description: On the next day, cells were pre-treated with DMSO or drug (0-200 nM dose range) for 2 hours, and then treated with recombinant mouse IFNγ (R&D Systems) for 24 hours. Nitric Oxide concentration in media was determined using the Griess reagent system (Promega). Cell viability was determined using WST-1 reagent (Roche). IC50 values were determined based on the suppression of IFNγ induced Nitric Oxide production normalized to cell viability.
# [2] = system: IFNγ-induced NO production in RAW264.7 mouse macrophages; experiment: Nitric oxide production and cell viability protocol used for TX64343 (RAW264.7, Griess, Cell Titer-Glo); type: cell-based; settings: slightly different assay procedure: DMEM+10% FBS, 0-30 μM or 0-3 μM dose range, IFNγ 24 h
# Description: On the next day, cells were pre-treated with DMSO or drug (0-30 μM or 0-3 μM dose range) for 2 hours, and then treated with IFNγ for 24 hours. Nitric Oxide concentration in media was determined using the Griess reagent system (Promega). Cell viability was determined using Cell Titer-Glo (Promega). IC50 values were determined based on the suppression of IFNγ induced Nitric Oxide production.
SMILES,pIC50 [1],pIC50 [2]
COC(=O)[C@]12CCC(C)(C)C[C@H]1[C@H]1C(=O)C=C3[C@@]4(C)[C@H]5O[C@@]5(C#N)C(=O)C(C)(C)[C@@H]4CC[C@@]3(C)[C@]1(C)CC2 [TX63098],8.64,–
CCNC(=O)[C@]12CCC(C)(C)C[C@H]1[C@H]1C(=O)C=C3[C@@]4(C)[C@H]5O[C@@]5(C#N)C(=O)C(C)(C)[C@@H]4CC[C@@]3(C)[C@]1(C)CC2 [TX63100],7.64,–
CC1(C)CC[C@]2(C(=O)NCC(F)(F)F)CC[C@]3(C)[C@H](C(=O)C=C4[C@@]5(C)[C@H]6O[C@@]6(C#N)C(=O)C(C)(C)[C@@H]5CC[C@]43C)[C@@H]2C1 [TX63158],7.80,–
CC1(C)CC[C@]2(C(=O)O)CC[C@]3(C)[C@H](C(=O)C=C4[C@@]5(C)[C@H]6O[C@@]6(C#N)C(=O)C(C)(C)[C@@H]5CC[C@]43C)[C@@H]2C1 [TX63160],7.52,–
COC(=O)[C@]12CCC(C)(C)C[C@H]1[C@H]1C(=O)C[C@@H]3[C@@]4(C)[C@H]5O[C@@]5(C#N)C(=O)C(C)(C)[C@@H]4CC[C@@]3(C)[C@]1(C)CC2 [TX63210],7.36,–
COC(=O)[C@]12CCC(C)(C)C[C@H]1[C@H]1C(=O)C=C3[C@@]4(C)[C@H]5O[C@H]5C(=O)C(C)(C)[C@@H]4CC[C@@]3(C)[C@]1(C)CC2 [TX63211],< 6.70,–
COC(=O)[C@]12CCC(C)(C)C[C@H]1[C@H]1C(=O)C=C3[C@]4(C)[C@@H](CC[C@@]3(C)[C@]1(C)CC2)C(C)(C)C(=O)[C@@]1(C#N)O[C@@H]41 [TX63212],8.80,–
CC1(C)CC[C@]2(C(=O)NCC(F)(F)F)CC[C@]3(C)[C@H](C(=O)C[C@@H]4[C@@]5(C)[C@H]6O[C@@]6(C#N)C(=O)C(C)(C)[C@@H]5CC[C@]43C)[C@@H]2C1 [TX63241],< 6.70,–
COC(=O)[C@]12CCC(C)(C)C[C@H]1[C@H]1C(=O)C=C3[C@]4(C)[C@@H](CC[C@@]3(C)[C@]1(C)CC2)C(C)(C)C(=O)[C@]1(C(N)=O)O[C@@H]14 [TX63315],< 6.70,–
COC(=O)[C@]12CCC(C)(C)C[C@H]1[C@H]1C(=O)C=C3[C@@]4(C)[C@H]5O[C@@]5(Br)C(=O)C(C)(C)[C@@H]4CC[C@@]3(C)[C@]1(C)CC2 [TX63392],< 6.70,–
CC1(C)CC[C@]2(CO)CC[C@]3(C)[C@H](C(=O)C=C4[C@@]5(C)[C@H]6O[C@@]6(C#N)C(=O)C(C)(C)[C@@H]5CC[C@]43C)[C@@H]2C1 [TX63537],8.82,–
CC[C@]12CCC(C)(C)C[C@H]1[C@H]1C(=O)C=C3[C@@]4(C)[C@H]5O[C@@]5(C#N)C(=O)C(C)(C)[C@@H]4CC[C@@]3(C)[C@]1(C)CC2 [TX63539],7.85,–
CC1(C)CC[C@]2(NC(=O)C(C)(F)F)CC[C@]3(C)[C@H](C(=O)C=C4[C@@]5(C)[C@H]6O[C@@]6(C#N)C(=O)C(C)(C)[C@@H]5CC[C@]43C)[C@@H]2C1 [TX63647],7.82,–
COC(=O)N[C@]12CCC(C)(C)C[C@H]1[C@H]1C(=O)C=C3[C@@]4(C)[C@H]5O[C@@]5(C#N)C(=O)C(C)(C)[C@@H]4CC[C@@]3(C)[C@]1(C)CC2 [TX63654],8.19,–
COC(=O)[C@]12CCC(C)(C)C[C@H]1[C@H]1C(=O)C[C@@H]3[C@@]4(C)[C@H]5O[C@@]5(C#N)C(=O)[C@@H](C)[C@@H]4CC[C@@]3(C)[C@]1(C)CC2 [TX63813],8.18,–
CN(C)C(=O)N[C@]12CCC(C)(C)C[C@H]1[C@H]1C(=O)C=C3[C@@]4(C)[C@H]5O[C@@]5(C#N)C(=O)C(C)(C)[C@@H]4CC[C@@]3(C)[C@]1(C)CC2 [TX63924],7.35,–
C[C@@H]1C(=O)[C@]2(C#N)O[C@@H]2[C@]2(C)C3=CC(=O)[C@@H]4[C@@H]5CC(C)(C)CC[C@]5(NC(=O)C(C)(F)F)CC[C@@]4(C)[C@]3(C)CC[C@@H]12 [TX63946],9.22,–
Cc1nnc([C@]23CCC(C)(C)C[C@H]2[C@H]2C(=O)C=C4[C@@]5(C)[C@H]6O[C@@]6(C#N)C(=O)C(C)(C)[C@@H]5CC[C@@]4(C)[C@]2(C)CC3)o1 [TX63947],8.60,–
CC1(C)CC[C@]2(C(=O)n3ccnc3)CC[C@]3(C)[C@H](C(=O)C=C4[C@@]5(C)[C@H]6O[C@@]6(C#N)C(=O)C(C)(C)[C@@H]5CC[C@]43C)[C@@H]2C1 [TX63960],8.54,–
CCNC(=O)[C@]12CCC(C)(C)C[C@H]1[C@H]1C(=O)C=C3[C@@]4(C)[C@H]5O[C@@]5(C#N)C(=O)[C@@H](C)[C@@H]4CC[C@@]3(C)[C@]1(C)CC2 [TX63962],8.96,–
CC1(C)CC[C@]2(CO)CC[C@]3(C)[C@H](C(=O)C[C@@H]4[C@@]5(C)[C@H]6O[C@@]6(C#N)C(=O)C(C)(C)[C@@H]5CC[C@]43C)[C@@H]2C1 [TX63966],7.28,–
CC1(C)CC[C@]2(C#N)CC[C@]3(C)[C@H](C(=O)C[C@@H]4[C@@]5(C)[C@H]6O[C@@]6(C#N)C(=O)C(C)(C)[C@@H]5CC[C@]43C)[C@@H]2C1 [TX63967],7.62,–
CNC(=O)CC[C@]12CCC(C)(C)C[C@H]1[C@H]1C(=O)C=C3[C@@]4(C)[C@H]5O[C@@]5(C#N)C(=O)C(C)(C)[C@@H]4CC[C@@]3(C)[C@]1(C)CC2 [TX64343],–,7.70
